Source: ChEMBL document CHEMBL3507680, “University of Dundee, Gates Library screen for HepG2 cell viability”

Experiment: Human HepG2 cell viability assay in 384 well format
Assay type: toxicity, cell-based
Design: dose 125 nL, time 70.5 hour; concentration not given beside the values
Conditions: HepG2 cells, read-out: Inhibition

Row | SMILES | cytotoxicity at 70.5 h
1 | CN1C(=O)CC(c2cnn(C)c2)C12CCN(C(=O)c1ccnnc1)CC2 (configuration not stated) | -9.97%
2 | CN1CCN(Cc2ccc(F)cc2)Cc2cccnc21 | -7.2%
3 | O=C(c1ccoc1)N1CC[C@@H]2O[C@@H](COCc3ccncc3)CC[C@@H]21 | 10.2%
4 | c1cnc(N2CCCC3(CCN(Cc4ccsc4)C3)C2)nc1 (configuration not stated) | 11.1%
5 | CC(C)Nc1ncnc2c1CCN(C(=O)CN(C)C)CC2 | 36.6%
6 | Cc1nc(COC[C@H]2CCC[C@]23CN(CC2CC2)CCO3)cs1 | 18.4%
7 | CN(C)C(=O)COCC1CN(Cc2ccsc2)Cc2nccn2C1 (configuration not stated) | -7.22%
8 | CC1=N[C@@]2(CC[C@@H]3CN(C(=O)NCc4cccc(F)c4)C[C@@H]32)C(=O)N1 | -3.91%
9 | O=C(Nc1ccccc1)N1CC(C(=O)N2CCCC2)C2(CCOCC2)C1 (configuration not stated) | -10.8%
10 | Cc1cccc(NC(=O)N2CC(C(=O)NC(C)C)C3(CCOCC3)C2)c1 (configuration not stated) | 9.15%
11 | CC1=N[C@@]2(CC[C@@H]3CN(C(=O)NCc4ccccc4C)C[C@@H]32)C(=O)N1 | 7.73%
12 | CC1=N[C@@]2(CC[C@@H]3CN(C(=O)NCCc4ccccc4)C[C@@H]32)C(=O)N1 | 7.76%
13 | CCC1=N[C@@]2(CC[C@@H]3CN(C(=O)NCC4CCCCC4)C[C@@H]32)C(=O)N1 | -2.69%
14 | O=C(c1cscn1)N1CCC2(CC1)CN(c1ccccn1)CCO2 | -9.14%
15 | O=C(NCC1CC1)c1c2c(N3CCCC3)ncnc2n2ccccc12 | 9.08%
16 | COCC(=O)N1CC[C@@H](N2CCN(C)CC2)[C@@H]1Cc1ccccc1 | 9.62%
17 | CNC(=O)C1=NOC2(CCN(Cc3nccs3)C2)C1 (configuration not stated) | -3.01%
18 | Cc1cc2ccccc2n1CCC(=O)N1CCCC2(CC1)CNC(=O)O2 (configuration not stated) | -7.42%
19 | Cc1cc(C(=O)N(Cc2c(C)nn(C)c2C)C(C)C)nc(C)n1 | 17%
20 | NC(=O)c1csc(N2CCN(C3CCc4ccccc4C3)CC2)n1 (configuration not stated) | -14.7%
21 | CS(=O)(=O)CCN1C[C@H](NC(=O)c2cnc(O)cn2)[C@@H](C2CC2)C1 | 11.1%
22 | O=C(CCc1nc(-c2ccccc2)no1)N[C@H]1COC[C@@H]1N1CCCC1 | -9.03%

Row | SMILES | cytotoxicity at 70.5 h
23 | CCC(Nc1nc(CCN)nc2ccccc12)c1cccs1 (configuration not stated) | -3.38%
24 | CCC(NC(=O)C1CCN(C(C)C)CC1)c1cn2cccnc2n1 (configuration not stated) | -2.43%
25 | Cc1nn(C)c2nc(NCCCN3CCCC(C(N)=O)C3)sc12 (configuration not stated) | -8.69%
26 | CSc1cccc(NC(=O)N2CCCC(CNC(=O)c3ccco3)C2)c1 (configuration not stated) | -8.32%
27 | CC(C)CCN1CC2(CCN(C3CCCOC3)CC2)OC1=O (configuration not stated) | -8.74%
28 | Cc1cccc2c1nc(COCC(=O)O)n2-c1ccc(N)nc1 | 9.09%
29 | CN(C)CCO[C@H]1C[C@@H](O)C12CCN(c1ncccc1Cl)CC2 | -5.24%
30 | O=C(O)c1cc(-c2ccoc2)cc(S(=O)(=O)NCc2ccccn2)c1 | -8.18%
31 | COc1ccc2c(c1)OCC(Cc1cc(C(=O)N3CCCC3)ccn1)C2 (configuration not stated) | -32.3%
32 | O=C1NCCCc2[nH]c(C3CCN(C(=O)C4CC4)CC3)nc21 | 11.6%
33 | Cc1nc(N(Cc2ccncc2)CC2CCCO2)c2ccsc2n1 (configuration not stated) | -5.47%
34 | CCCS(=O)(=O)NCc1cccnc1Oc1ccc(C)c(F)c1F | -1.35%
35 | CC(C)CN(Cc1cnn(C)c1)C(=O)C1COc2ccccc2C1 (configuration not stated) | 1.15%
36 | Cc1nc[nH]c1C(=O)NCc1cccnc1N(C)C1CCCCC1 | 4.83%
37 | O=C(CC1COCCN1)N1CCC(N2CCc3ccccc3C2)CC1 (configuration not stated) | 7.65%
38 | CCn1nc(C)c(CCNC(=O)c2cccc(NCC(=O)O)c2)c1C | 1.17%
39 | CN(C)c1nc2c(c(=O)[nH]1)CCN(C(=O)c1ccc(=O)[nH]c1)C2 | -3.2%
40 | CCn1c(C2CCCN(Cc3ccc(OC)c(C)c3C)C2)nn(C)c1=O (configuration not stated) | -5.07%
41 | N#CC1(c2ccccc2)CCN(C(=O)C2CCCN(C(N)=O)C2)CC1 (configuration not stated) | 43.9%
42 | Cc1[nH]c2c(C)ccc(C)c2c1CC(=O)NC1CCCNC1=O (configuration not stated) | -5.85%
43 | Cc1ccc(-c2nnc(CN3CCCC(O)(CO)CC3)o2)n1C (configuration not stated) | 14.8%
44 | COc1cccc2c1OCC(Cc1cnc(N)c(C)c1)C2 (configuration not stated) | -8.04%

Row | SMILES | cytotoxicity at 70.5 h
45 | Cn1cc(CCC(=O)N2C[C@H]3CC[C@@H]2CN(Cc2cccnc2)C3)cn1 | 12.2%
46 | C[C@@H]1CN(CCC(=O)NCc2ccccc2Cl)CC[C@@]1(O)C1CCC1 | -0.451%
47 | COCc1cc(N2CCOCC2)n2nccc2n1 | -3.4%
48 | Cc1nc(C)c(Cc2nc(C3CC3)n[nH]2)c(=O)[nH]1 | -3.16%
49 | O=C(c1cc(=O)[nH]c(=O)[nH]1)N1CCCC(CO)(CC2CC2)C1 (configuration not stated) | -10.5%
50 | c1cnn(Cc2ccc(CN3CCC4(CCNCC4)C3)cc2)c1 | 2.52%
51 | Cc1nc(CN(C)Cc2nc(-c3sccc3C)oc2C)no1 | -3%
52 | Cc1ccc(N2CCN(c3ccccc3C)CC2C)nn1 (configuration not stated) | -0.203%
53 | O=C(Nc1cnc2n1CCCC2)c1cccc(OCC(F)(F)F)c1 | -6.16%
54 | Cc1cc(N2Cc3cnn(CCO)c3C2)nc(-c2ccccc2)n1 | -11.9%
55 | Cc1ccc(-c2cnnc(NCC3(N4CCOCC4)CCCC3)n2)o1 | -8.14%
56 | COc1ccccc1CC(=O)N(CCN1CCOCC1)Cc1ccco1 | -1.43%
57 | Cc1ccc(C(C(=O)NC(C)(C)CN2CCCC2)N(C)C)cc1 (configuration not stated) | 45%
58 | Cc1cc(CC(C)Nc2nc(-c3cccnc3)nc3c2CNC3)[nH]n1 (configuration not stated) | -12%
59 | CCNC(=O)[C@@H]1C[C@H](N)CN1Cc1ccc2cccc(Cl)c2n1 | -7.99%
60 | Cc1n[nH]c(CN2CCN(Cc3ccccc3)[C@@H]3CS(=O)(=O)C[C@@H]32)n1 | 0.0797%
61 | CCCn1ncc(C(=O)N2CCN(C(=O)c3ccc[nH]3)CC2)c1C | -7.32%
62 | CC(C)[C@@H]1CN(Cc2ccccn2)C[C@H]1NS(=O)(=O)N(C)C | -0.239%
63 | CC(C)(C)NC(=O)[C@@H]1Cc2ccccc2CN1Cc1cccs1 | 8.37%
64 | O=C(CCCc1ccc(Cl)cc1)N1CCC(c2nnc[nH]2)CC1 | -2.6%
65 | CC(C)(CN1CCC2(CCCNC2)C1)N1CCOCC1 (configuration not stated) | 8.57%
66 | CC(C)N1CCC(N2CCCC(C(=O)NCC3(O)CCCCC3)C2)CC1 (configuration not stated) | -3.9%

Row | SMILES | cytotoxicity at 70.5 h
67 | Cc1cc(C)c2nc(CN3CCC(N4CCOC4=O)CC3)cc(O)c2c1 | 2.37%
68 | Cc1cccc(CN2CCCC(O)(CNCCc3c[nH]cn3)C2=O)c1 (configuration not stated) | 9.08%
69 | CC(=O)NC1CCN(C(=O)c2cnc(COc3ccccc3)nc2O)C1 (configuration not stated) | -4.02%
70 | CC(C)(O)c1cn(C2CCN(c3ncccc3Cl)CC2)nn1 | 3.9%
71 | Cc1cc(C)c(-n2cccn2)c(CN2CCOCC(CN(C)C)C2)c1 (configuration not stated) | -3.75%
72 | CCOCC(=O)N1Cc2cnc(-c3ccccc3)nc2C1 | -13%
73 | O=C(c1ccccc1)N1C[C@@H]2CC[C@H](C1)N(S(=O)(=O)c1cccnc1)C2 | -7.07%
74 | CN(C)CCOc1cccc(CN2CCCC3(C2)CN(C)C(=O)O3)c1 (configuration not stated) | 26%
75 | Oc1cc(CNCCN2CCCCC2)nc2c(F)cccc12 | 24.5%
76 | Cc1cccnc1NCCNC(=O)c1cnc(-c2ccccn2)nc1O | 46.5%
77 | COc1cccc(N2CCN(C(=O)C(O)c3ccccc3Cl)CC2=O)c1 (configuration not stated) | -4.36%
78 | CCc1cn[nH]c1C1CCN(C(=O)c2cccc(O)c2C)CC1 | -12.3%
79 | COCCN(CC1CCCO1)C(=O)CCNC(=O)c1ccccc1F (configuration not stated) | -13.6%
80 | Cc1cnc(NC(=O)c2ccc(C3CCCN3CC(C)C)s2)s1 (configuration not stated) | -5.46%
81 | O=C(Nc1cccc2ccccc12)N1CCC(N2CCSCC2)CC1 | -0.0142%
82 | Cc1ccc(OCc2occc2C(=O)N2C[C@@H]3[C@@H](CN(C)C)[C@@H]3C2)cc1 | -9.55%
83 | CCc1cc(N(C)CCc2noc(C)n2)nc(N2CCOCC2)n1 | -7.76%
84 | Cc1nc(COC[C@H]2CCC[C@@]23CN(C(C)C)CCO3)cs1 | -6.88%
85 | O=C(c1ccoc1)N1CC[C@@H]2O[C@@H](COCCN3CCCC3)CC[C@@H]21 | -12.6%
86 | O=C(c1ccco1)N1CC[C@@H]2O[C@H](COCCN3CCCC3)CC[C@@H]21 | 10.5%
87 | c1cnc(N2CCC3(CCCN(Cc4ccncc4)C3)CC2)nc1 | 18.3%
88 | Cc1ccc2c(n1)N(CC(C)C)CCN(S(C)(=O)=O)C2 | -6.3%

Row | SMILES | cytotoxicity at 70.5 h
89 | Cc1occc1C(=O)N1CCC2(CC1)CN(c1ccccn1)CCO2 | -5.88%
90 | Cc1noc(C)c1CN1CC[C@H]2OCC[C@@]2(C(=O)NC2CCCC2)C1 | -9.16%
91 | O=S(=O)(NCC1COCc2c(-c3ccncc3)nnn2C1)C1CC1 (configuration not stated) | -3.99%
92 | Cc1ccoc1C(=O)N1CCn2nnc(COc3cccnc3)c2C1 | -11.5%
93 | COc1cc(N2C[C@H]3CCC[C@@H](CN(C)C)[C@H]3C2)ncn1 | -10.1%
94 | Cn1cccc1C(=O)N1CCn2nnc(COc3cccnc3)c2C1 | -8.46%
95 | COc1cc(N2C[C@H]3CCC[C@@H](CN4CCOCC4)[C@H]3C2)ncn1 | -8.48%
96 | Fc1ccc(CN2CCC3(CC2)CCN(c2ncccn2)CC3)cc1 | 10.9%
97 | Cc1cccc(CN2Cc3nccn3CC(CN3CCOCC3)C2)c1 (configuration not stated) | -9.03%
98 | c1nc(CNC2CCOCC2)c2n1CCCN(CC1CC1)C2 | -3.82%
99 | CCS(=O)(=O)N1CCN(Cc2ccncc2)c2nc(C)ccc2C1 | -5.64%
100 | O=C(c1cccnc1)N1CCn2nnc(COc3ccccn3)c2C1 | -14.2%
101 | CCS(=O)(=O)N1CCN(Cc2cccnc2)c2nc(C)ccc2C1 | 5.16%
102 | c1cncc(OCC2CN(Cc3ccsc3)Cc3nccn3C2)c1 (configuration not stated) | 6.26%
103 | CS(=O)(=O)NCc1ncn2c1CN(Cc1cccs1)CCC2 | -7.97%
104 | O=C1CC2(CCN(Cc3cccnc3)C2)CN1c1ccc2c(c1)OCO2 (configuration not stated) | 12.8%
105 | O=C1CO[C@@H]2CN(Cc3cccs3)C[C@H]2N1Cc1cccnc1 | -10.9%
106 | CCc1ccc(CN2Cc3nccn3CC(CN3CCOCC3)C2)o1 (configuration not stated) | -5.92%
107 | O=C1CO[C@@H]2CN(Cc3cccnc3)C[C@H]2N1Cc1ccncc1 | -6.09%
